Assay results published in PubChem BioAssay AID248 (DTP/NCI, 2004).
Where “and” joins values, the source holds several entries; their conditions need not be identical. Equal values may be shown once. Inconclusive results and toxic doses are left out. Rule as the data show it: active = T/C of 150% or more; inactive = T/C below 125%.

System: L1210 leukemia ip in BDF1 mice, survival T/C
Experiment: NCI In Vivo Anticancer Drug Screen. Data for tumor model L1210 Leukemia (intraperitoneal) in B6D2F1 (BDF1) mice
Conditions: endpoint: mean survival time, higher = longer survival
Procedure, shortened: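 Tumor was transplanted into mice, which were then dosed with test compound or vehicle alone. Survival was recorded for each group, and the treated figure was expressed relative to the control figure.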

[1] = dose: 37.5 mg/kg/injection, schedule: Q04DX003 (ip), vehicle: saline
[2] = dose: 75.0 mg/kg/injection, schedule: Q01DX001 (ip), vehicle: saline
[3] = dose: 75.0 mg/kg/injection, schedule: Q04DX003 (ip), vehicle: saline
[4] = dose: 150.0 mg/kg/injection, schedule: Q01DX001 (ip), vehicle: saline
[5] = dose: 150.0 mg/kg/injection, schedule: Q04DX003 (ip), vehicle: saline
[6] = dose: 100.0 mg/kg/injection, schedule: Q01DX001 (ip), vehicle: saline with Tween-80
[7] = dose: 100.0 mg/kg/injection, schedule: Q01DX009 (ip), vehicle: saline with Tween-80
[8] = dose: 100.0 mg/kg/injection, schedule: Q04DX003 (ip), vehicle: saline with Tween-80
[9] = dose: 200.0 mg/kg/injection, schedule: Q01DX009 (ip), vehicle: saline with Tween-80
[10] = dose: 200.0 mg/kg/injection, schedule: Q04DX003 (ip), vehicle: saline with Tween-80
[11] = dose: 400.0 mg/kg/injection, schedule: Q01DX009 (ip), vehicle: saline with Tween-80
[12] = dose: 100.0 mg/kg/injection, schedule: Q01DX001 (ip), vehicle: saline
[13] = dose: 200.0 mg/kg/injection, schedule: Q01DX001 (ip), vehicle: saline
[14] = dose: 400.0 mg/kg/injection, schedule: Q01DX001 (ip), vehicle: saline
[15] = dose: 50.0 mg/kg/injection, schedule: Q01DX009 (ip), vehicle: Klucel (hydroxypropylcellulose) (HPC)
[16] = dose: 100.0 mg/kg/injection, schedule: Q01DX009 (ip), vehicle: Klucel (hydroxypropylcellulose) (HPC)
[17] = dose: 100.0 mg/kg/injection, schedule: Q04DX003 (ip), vehicle: Klucel (hydroxypropylcellulose) (HPC)
[18] = dose: 200.0 mg/kg/injection, schedule: Q01DX009 (ip), vehicle: Klucel (hydroxypropylcellulose) (HPC)

Measured: T/C

NCCSC1(O)C(=O)c2ccccc2-c2ccccc21 (stereo unspecified)
inactive: [1] 94 % of control | [2] 101 % of control | [3] 103 % of control | [4] 95 % of control | [5] 95 % of control

O=c1[nH]c(NCCCCc2ccccc2)c(Br)c(=O)[nH]1
inactive: dose: 25.0 mg/kg/injection, schedule: Q01DX001 (ip), vehicle: saline with Tween-80 98 % of control | dose: 50.0 mg/kg/injection, schedule: Q01DX001 (ip), vehicle: saline with Tween-80 97 % of control | [6] 98 % of control

CCC(C(C)=O)C(C)=O.CCC(C(C)=O)C(C)=O.[Cu]
inactive: dose: 6.0 mg/kg/injection, schedule: Q01DX001 (ip), vehicle: saline 95 % of control | dose: 12.0 mg/kg/injection, schedule: Q01DX001 (ip), vehicle: saline 101 % of control | dose: 25.0 mg/kg/injection, schedule: Q01DX001 (ip), vehicle: saline 112 % of control

CC1CCCCN1C(=O)Nc1ccccc1C(F)(F)F (stereo unspecified)
inactive: [6] 96 % of control and 97 % of control | [7] 100 % of control and 119 % of control | dose: 100.0 mg/kg/injection, schedule: Q04DX002 (ip), vehicle: saline with Tween-80 96 % of control and 86 % of control | [8] 99 % of control and 91 % of control | dose: 200.0 mg/kg/injection, schedule: Q01DX001 (ip), vehicle: saline with Tween-80 97 % of control and 100 % of control | [9] 106 % of control and 107 % of control | dose: 200.0 mg/kg/injection, schedule: Q04DX002 (ip), vehicle: saline with Tween-80 96 % of control and 99 % of control | [10] 95 % of control and 101 % of control | dose: 400.0 mg/kg/injection, schedule: Q01DX001 (ip), vehicle: saline with Tween-80 100 % of control and 90 % of control | [11] 93 % of control and 116 % of control | dose: 400.0 mg/kg/injection, schedule: Q04DX002 (ip), vehicle: saline with Tween-80 95 % of control and 100 % of control | dose: 400.0 mg/kg/injection, schedule: Q04DX003 (ip), vehicle: saline with Tween-80 91 % of control

C=C1C(=O)O[C@@H]2C[C@@]3(C)CCC[C@H](C)C3=C[C@H]12
inactive: [12] 112 % of control | [13] 98 % of control | [14] 102 % of control

CCC(Nc1ccccc1)Nc1ccccc1
inactive: dose: 100.0 mg/kg/injection, schedule: Q04DX003 (ip), vehicle: acetone 112 % of control | dose: 200.0 mg/kg/injection, schedule: Q04DX003 (ip), vehicle: acetone 87 % of control | dose: 400.0 mg/kg/injection, schedule: Q04DX003 (ip), vehicle: acetone 94 % of control

COC1OC2COC(c3ccccc3)OC2C(OC(C)=O)C1OS(=O)(=O)c1ccc(C)cc1 (stereo unspecified)
inactive: dose: 100.0 mg/kg/injection, schedule: Q04DX002 (ip), vehicle: Klucel (hydroxypropylcellulose) (HPC) 109 % of control | dose: 200.0 mg/kg/injection, schedule: Q04DX002 (ip), vehicle: Klucel (hydroxypropylcellulose) (HPC) 88 % of control | dose: 400.0 mg/kg/injection, schedule: Q04DX002 (ip), vehicle: Klucel (hydroxypropylcellulose) (HPC) 109 % of control

Cc1cc([N+](=O)[O-])ccc1NS(=O)(=O)c1ccccc1
inactive: [15] 92 % of control | [16] 95 % of control | [17] 102 % of control | [18] 95 % of control | dose: 200.0 mg/kg/injection, schedule: Q04DX003 (ip), vehicle: Klucel (hydroxypropylcellulose) (HPC) 97 % of control

O=C(Nc1ccc([N+](=O)[O-])cc1)Nc1ccc([N+](=O)[O-])c(C(F)(F)F)c1
inactive: dose: 12.5 mg/kg/injection, schedule: Q01DX009 (ip), vehicle: saline 87 % of control | dose: 15.0 mg/kg/injection, schedule: Q01DX015 (ip), vehicle: saline 97 % of control | dose: 25.0 mg/kg/injection, schedule: Q01DX009 (ip), vehicle: saline 90 % of control | dose: 25.0 mg/kg/injection, schedule: Q04DX003 (ip), vehicle: acetone 86 % of control | dose: 30.0 mg/kg/injection, schedule: Q01DX015 (ip), vehicle: saline 94 % of control | dose: 50.0 mg/kg/injection, schedule: Q01DX009 (ip), vehicle: saline 90 % of control | dose: 50.0 mg/kg/injection, schedule: Q04DX003 (ip), vehicle: acetone 88 % of control | dose: 60.0 mg/kg/injection, schedule: Q01DX015 (ip), vehicle: saline 92 % of control | dose: 75.0 mg/kg/injection, schedule: Q01DX009 (ip), vehicle: saline with Tween-80 102 % of control | [12] 94 % of control | dose: 115.0 mg/kg/injection, schedule: Q01DX009 (ip), vehicle: saline with Tween-80 100 % of control | dose: 120.0 mg/kg/injection, schedule: Q01DX015 (ip), vehicle: saline 90 % of control

O=c1c2cccc3cccc(c32)c2nc3ccccc3n12
inactive: dose: 6.25 mg/kg/injection, schedule: Q01DX009 (ip), vehicle: saline with Tween-80 120 % of control | dose: 12.5 mg/kg/injection, schedule: Q01DX009 (ip), vehicle: saline with Tween-80 116 % of control | dose: 25.0 mg/kg/injection, schedule: Q01DX009 (ip), vehicle: saline with Tween-80 100 % of control | [8] 104 % of control | [10] 103 % of control

CNC(c1ccccc1)C(O)c1ccccc1 (stereo unspecified)
inactive: dose: 25.0 mg/kg/injection, schedule: Q01DX009 (ip), vehicle: Klucel (hydroxypropylcellulose) (HPC) 106 % of control | [15] 95 % of control | [16] 106 % of control | [17] 97 % of control

[O-][n+]1ccccc1CCSCCc1cccc[n+]1[O-]
inactive: [12] 101 % of control | [13] 88 % of control | [14] 97 % of control

Cc1cc(OC(=O)NC2CCCCC2)cc(C)c1Cl
inactive: [16] 95 % of control | [18] 95 % of control | dose: 400.0 mg/kg/injection, schedule: Q01DX009 (ip), vehicle: Klucel (hydroxypropylcellulose) (HPC) 94 % of control

CNC(=O)c1cc(C(=O)NC)c[n+](Cc2c(Cl)cccc2Cl)c1
inactive: dose: 18.75 mg/kg/injection, schedule: Q01DX009 (ip), vehicle: saline 92 % of control | dose: 37.5 mg/kg/injection, schedule: Q01DX009 (ip), vehicle: saline 103 % of control | [1] 100 % of control | [2] 96 % of control | dose: 75.0 mg/kg/injection, schedule: Q01DX009 (ip), vehicle: saline 100 % of control | [3] 105 % of control | [4] 98 % of control | [5] 97 % of control

Nc1ccc(I)c(Cl)c1Cl
inactive: [7] 110 % of control | [9] 108 % of control | [11] 102 % of control

CCCC(=O)Nc1ccc(C(=O)OCC)cc1
inactive: dose: 100.0 mg/kg/injection, schedule: Q04DX002 (ip), vehicle: saline 93 % of control | dose: 200.0 mg/kg/injection, schedule: Q04DX002 (ip), vehicle: saline 100 % of control | dose: 400.0 mg/kg/injection, schedule: Q04DX002 (ip), vehicle: saline 107 % of control

O=C(/C=C/C=C/c1cccc([N+](=O)[O-])c1)CCl
inactive: [12] 101 % of control | [13] 95 % of control | [14] 103 % of control
